US20060003348A1, “Omi PDZ modulators” (GENENTECH. INC., priority 2004, published 2006)
Like-named read-outs stand apart in the source and are kept apart here. Where a SMILES comes first, the peptide text is derived from it. Where no end group is shown, it is not given here.

Target: T1, Omi PDZ (GST-Omi PDZ fusion protein) (Homo sapiens, UniProt O43464)
T1 construct: DNA fragment encoding hOmi PDZ domain was cloned into BamHI/XhoI sites of pGEX6P-3 plasmid, creating a GST-hOmiPDZ fusion protein; made in house; host or cells: E. coli BL21(DE3), plasmid pGEX6P-3
T1 sequence (O43464 359-458): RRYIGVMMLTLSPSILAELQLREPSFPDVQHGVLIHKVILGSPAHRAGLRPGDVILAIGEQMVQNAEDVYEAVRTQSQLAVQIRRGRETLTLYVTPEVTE
Assay: Competition ELISA affinity assay: peptide blocks GST-Omi PDZ binding to immobilized biotinylated peptide
Details: for fold lower affinity (IC50 increase) relative to SWTMFWV (hOmi_c1): compared with peptide SWTMFWV (hOmi_c1); for IC50 / IC50 (μM): competition ELISA
Method: Affinity Assays—The binding affinities of peptides for Omi PDZ were determined as IC50 values using a previously described competition ELISA (18). […] Assay plates were prepared by immobilizing an amino-terminally biotinylated peptide (biotin-GWTMFWV) on maxisorp plates coated with NeuTravidin and blocked with BSA. A fixed concentration of GST-Omi PDZ fusion protein (20 nM) in PBS, 0.5% BSA, 0.1% Tween 20 (PBT buffer) was preincubated for 1 h with serial dilutions of peptide and then transferred to the assay plates. After 1 h incubation, the plates were washed with PBS, 0.05% Tween 20, incubated for 30 min with HRP/anti-GST antibody (1:10,000) in PBT buffer, washed again, and detected with 3,3′,5,5′-Tetramethyl-benzidine/H2O2 (TMB) peroxidase substrate.
The binding affinity of this ligand to Omi PDZ was measured with ELISA competition assay. […] PDZ-opt is an optimized peptide ligand of Omi PDZ derived from a chemically synthesized peptide library (11) with totally different sequence motif from that of the ligands derived from phage libraries. […] Peptides from libC and peptides Mxi2 and PDZ-opt were synthesized with acetylated N termini and free C termini, unless indicated otherwise. Peptides from libN were synthesized with free N termini and amidation at C termini.

[1] = 20 nM GST-Omi PDZ, immobilized biotinylated high affinity peptide, mean, read-out: IC50
[2] = IC50 (μM), 20 nM GST-Omi PDZ, immobilized biotinylated high affinity peptide, mean
[3] = 20 nM GST-Omi PDZ, immobilized biotinylated high affinity peptide, mean

CC(=O)N[C@@H](Cc1ccccc1)C(=O)N[C@@H](Cc1c[nH]c2ccccc12)C(=O)N[C@H](C(=O)O)C(C)C [hOmi_c1_t4, F W V] (Ac-Phe-Trp-Val-OH)
fold lower affinity (IC50 increase) relative to SWTMFWV (hOmi_c1): > 30 fold
IC50 [1]: 118 ± 32.1 µM

NC(=O)[C@H](Cc1c[nH]c2ccccc12)NC(=O)[C@H](Cc1c[nH]c2ccccc12)NC(=O)[C@H](Cc1c[nH]cn1)NC(=O)[C@@H](N)CO [hOmi_n1_t5, S H W W] (H-SHWW-NH2)
fold lower affinity relative to SHWWGGWLG (hOmi_n1) (truncation series of SHWWGGWLG, C terminus amidated): 3 fold

NC(=O)[C@H](Cc1c[nH]c2ccccc12)NC(=O)[C@H](Cc1c[nH]c2ccccc12)NC(=O)[C@@H](N)Cc1c[nH]cn1 [hOmi_n1_t9, H W W] (H-His-Trp-Trp-NH2)
IC50 [1]: 108 ± 32.2 µM
effect on binding to Omi PDZ, in words (SHWWGGWLG series) (truncations of SHWWGGWLG (libN), C terminus amidated): comparable affinity as tetrapeptide SHWW

Ac-GQYYFV-OH [PDZ-Opt, G Q Y Y F V, reference compound]
fold lower affinity (IC50 increase) relative to SWTMFWV (hOmi_c1): 5 fold
IC50 [1]: 17.6 ± 5.6 µM

Ac-MDIELVMI [Mxi2, M D I E L V M I, reference compound]
IC50 [2]: > 500 µM

Ac-RFPHFWV-OH [hOmi_c2, R F P H F W V]
fold lower affinity (IC50 increase) relative to SWTMFWV (hOmi_c1): 50 fold

Ac-SWTMFAV [hOmi_c1_A2, S W T M F A V]
IC50 (unit printed in the cell (mM), read-out: IC50): > 1000 µM

Ac-SWTMFWV [hOmi_c1, S W T M F W V]
IC50 [2]: 3.3 µM

H-SHWWGGWL-NH2 [hOmi_n1_t1, S H W W G G W L]
IC50 [1]: 17.6 ± 3.9 µM

S H W W G (SHWWG) [hOmi_n1_t4]
IC50 (μM) [3]: NDI

SHAWGGWL [hOmi_n1_A3, S H A W G G W L]
IC50 (μM) [3]: NDI

SHWAGGWL [hOmi_n1_A2, S H W A G G W L]
IC50 (μM) [3]: NDI

SHWWGG [hOmi_n1_t3, S H W W G G]
IC50 (μM) [3]: NDI

SWTMFWV [hOmi_c3, S W T M F W V-CONH2]
IC50 (μM) [3]: NDI

WGGWLG [hOmi_n1_t8, W G G W L G]
IC50 (μM) [3]: NDI

WWGGWLG [hOmi_n1_t7, W W G G W L G]
IC50 (μM) [3]: NDI
